Reference: patent US20180136197A1, “CELL-FREE METHODS OF DETECTING BIOACTIVE LIGANDS” (Brigham Young University, priority 2016, published 2018)

B1: RNase inhibitor: murine RNAse inhibitor purchased from New England Biolabs, added to CFPS reactions (protein, UniProt Q91VI7 1-456, looked up)
Ribonuclease inhibitor: MSLDIQCEQLSDARWTELLPLIQQYEVVRLDDCGLTEVRCKDISSAVQANPALTELSLRTNELGDGGVGLVLQGLQNPTCKIQKLSLQNCGLTEAGCGILPGMLRSLSTLRELHLNDNPMGDAGLKLLCEGLQDPQCRLEKLQLEYCNLTATSCEPLASVLRVKADFKELVLSNNDLHEPGVRILCQGLKDSACQLESLKLENCGITAANCKDLCDVVASKASLQELDLSSNKLGNAGIAALCPGLLLPSCKLRTLWLWECDITAEGCKDLCRVLRAKQSLKELSLASNELKDEGARLLCESLLEPGCQLESLWIKTCSLTAASCPYFCSVLTKSRSLLELQMSSNPLGDEGVQELCKALSQPDTVLRELWLGDCDVTNSGCSSLANVLLANRSLRELDLSNNCMGGPGVLQLLESLKQPSCTLQQLVLYDIYWTNEVEEQLRALEEERPSLRIIS

Test system: E. coli-based CFPS of GFP
Test: Cell-free protein synthesis (CFPS) of model protein GFP in presence of additives
Assay type: biochemical
Procedure: CFPS reactions took place in a 96-well plate at 37° C. for 2 hours. PANOxSP was used as an energy source (25% reaction volume of the cell extract, 1.2 nM plasmid, 12 to 15 mM magnesium glutamate, 1 mM 1,4-diaminobutane, 1.5 mM Spermidine, 33.3 mM phosphoenolpyruvate, 10 mM ammonium glutamate, 175 mM potassium glutamate, 2.7 mM potassium oxalate, 0.33 mM nicotinamide adenine dinucleotide, 0.27 mM coenzyme A, 1.2 mM ATP, 0.86 mM CTP, 0.86 mM GTP, 0.86 mM UTP, 0.17 mM folinic acid, 2 mM of all canonical amino acids with the exception of glutamic acid^81. Expressed protein was quantified by addition of 5 μM radiolabeled (U-14C) leucine (PerkinElmer, Waltham, Mass.) to the CFPS reaction. Varying concentrations (0 to 200 μM) of ligands were added to the CFPS reaction. In case of human sample testing, 20% and 10% of whole blood and urine (v/v), respectively were added to the CFPS in addition to the EDC ligands.
Initially, we hypothesized that urea is the main component to hinder protein synthesis in urine samples. The urea concentration in human samples is in a range of 0.1 to 0.8 M^88-89 with the average being 0.22 M^90. To understand the effect of urea on CFPS, we synthesized the model protein GFP in the presence of urea at concentrations between 0.001 to 1 M (FIG. 23). […] Error bars represent one standard deviation for n=3. […] Even reactions with 0.5 M urea retained 40% protein synthesis capability.
We next hypothesized that RNase activity hinders protein synthesis in both urine and blood samples^91,92,93. To test this hypothesis, we performed CFPS of GFP in the presence of urine and blood, and added murine RNase inhibitor as shown in FIGS. 24A and 24B. FIGS. 24A and 24B show the effect of RNase inhibitor on CFPS of GFP in the presence of urine (top) and blood (bottom). The lighter bars in both graphs represent the improvements in protein production in the presence of urine or blood with the addition of RNase inhibitor. The error bars represent one standard deviation for n=3. […] For instance, for 20% by volume urine sample, the GFP production yield increased from less than 10% to more than 30%. The improvement was more significant for blood samples, as 10% by volume blood eliminated protein synthesis, but even 45% by volume blood in CFPS containing RNase inhibitor retained 50% protein synthesis yield. […] Adding RNase inhibitors to CFPS reactions facilitates synthesis of sufficient biosensor protein to detect ligands in up to 25% and 45% by volume urine and blood, respectively. These higher volume percentages help to detect lower concentrations of ligands in the samples.

Molecule | effect on CFPS performance (0.1 M urea) | retained protein synthesis capability (0.5 M urea) | GFP production yield (20% by volume urine, with RNase inhibitor (less than 10% without)) | retained protein synthesis yield (45% by volume blood, with RNase inhibitor)
NC(N)=O [urea] | doesn't have a significant effect | 40% | – | –
B1 | – | – | more than 30% | 50%
